Source: PubChem BioAssay AID2060607 (Molecular Pharmacology Branch, DTP, NCI, 2025)
“And” between values parts separate entries of the source, which are not always exact repeats. Equal entries are not always repeated.

System: 876862-298-R-J1-PDC complex spheroids, viability % test/control
Assay: Anticancer human tumor 876862-298-R-J1-PDC patient-derived endometrial carcinoma cell line growth inhibition [CLK]
Details: for viability, T/C: stronger effect = lower value
Procedure, shortened: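 Patient-derived tumor cells grown as complex spheroids with HUVEC endothelial cells and mesenchymal stem cells, treated with drug combinations. Concentrations descend in half-log steps from near clinical Cmax, or from 10 microM if Cmax unknown.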

[1] = curve of first compound, second compound 0.0316 µM
[2] = curve of first compound, second compound 0.1 µM
[3] = curve of first compound, second compound 0.316 µM
[4] = curve of first compound, second compound 1 µM
[5] = curve of first compound, second compound 3.16 µM
[6] = curve of first compound, second compound 10 µM
[7] = second compound 0.0316 µM, first compound 0.0316 µM
[8] = second compound 0.0316 µM, first compound 0.1 µM
[9] = second compound 0.0316 µM, first compound 0.316 µM
[10] = second compound 0.0316 µM, first compound 1 µM
[11] = second compound 0.1 µM, first compound 0.0316 µM
[12] = second compound 0.1 µM, first compound 0.1 µM
[13] = second compound 0.1 µM, first compound 0.316 µM
[14] = second compound 0.1 µM, first compound 1 µM
[15] = second compound 0.316 µM, first compound 0.0316 µM
[16] = second compound 0.316 µM, first compound 0.1 µM
[17] = second compound 0.316 µM, first compound 0.316 µM
[18] = second compound 0.316 µM, first compound 1 µM
[19] = second compound 1 µM, first compound 0.0316 µM
[20] = second compound 1 µM, first compound 0.1 µM
[21] = second compound 1 µM, first compound 0.316 µM
[22] = second compound 1 µM, first compound 1 µM
[23] = second compound 3.16 µM, first compound 0.0316 µM
[24] = second compound 3.16 µM, first compound 0.1 µM
[25] = second compound 3.16 µM, first compound 0.316 µM
[26] = second compound 3.16 µM, first compound 1 µM
[27] = second compound 10 µM, first compound 0.0316 µM
[28] = second compound 10 µM, first compound 0.1 µM
[29] = second compound 10 µM, first compound 0.316 µM
[30] = second compound 10 µM, first compound 1 µM
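Note: spheroids exposed to drugs for 7 days before readout.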
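Throughout, for viability, T/C: 100% = DMSO vehicle control wells.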

How did the IC50 [1] turn out when `CCc1c2c(nc3ccc(O)cc13)-c1cc3c(c(=O)n1C2)COC(=O)[C@]3(O)CC` + CN1CCN(c2cc(C(=O)Nc3cc4cc(-c5cnn(C)c5)ccc4cn3)ccn2)CC1 was run?
The IC50 was under 3.16 nM.

And the IC50 [2]?
Its IC50 is under 3.16 nM.

What about the IC50 [3] of the same molecule?
The IC50 was under 3.16 nM.

And the IC50 [4]?
Its IC50 is under 3.16 nM.

What about the IC50 [5] of the same molecule?
The IC50 was under 3.16 nM.

What about the IC50 [6] of the same molecule?
Its IC50 is under 3.16 nM.

And the viability, T/C (second compound 0.0316 µM, first compound 0.00316 µM)?
The viability, T/C was 25.1%.

What about the viability, T/C (second compound 0.0316 µM, first compound 0.01 µM) of the same molecule?
Its viability, T/C is 8.53%.

And the viability, T/C [7]?
The viability, T/C was 7.87%.

And the viability, T/C [8]?
Its viability, T/C is 4.18%.

What about the viability, T/C [9] of the same molecule?
Its viability, T/C is 3.57%.

And the viability, T/C [10]?
The viability, T/C was 2.49%.

And the viability, T/C (second compound 0.1 µM, first compound 0.00316 µM)?
Its viability, T/C is 14.1%.

And the viability, T/C (second compound 0.1 µM, first compound 0.01 µM)?
Its viability, T/C is 7.89%.

What about the viability, T/C [11] of the same molecule?
The viability, T/C was 5.72%.

What about the viability, T/C [12] of the same molecule?
The viability, T/C was 4.71%.

And the viability, T/C [13]?
The viability, T/C was 3.63%.

And the viability, T/C [14]?
The viability, T/C was 2.79%.

What about the viability, T/C (second compound 0.316 µM, first compound 0.00316 µM) of the same molecule?
The viability, T/C was 1.72%.

What about the viability, T/C (second compound 0.316 µM, first compound 0.01 µM) of the same molecule?
Its viability, T/C is 1.95%.

And the viability, T/C [15]?
The viability, T/C was 1.32%.

And the viability, T/C [16]?
The viability, T/C was 0.72%.

What about the viability, T/C [17] of the same molecule?
Its viability, T/C is 0.73%.

And the viability, T/C [18]?
Its viability, T/C is 0.47%.

What about the viability, T/C (second compound 1 µM, first compound 0.00316 µM) of the same molecule?
Its viability, T/C is 0.79%.

What about the viability, T/C (second compound 1 µM, first compound 0.01 µM) of the same molecule?
Its viability, T/C is 0.82%.

And the viability, T/C [19]?
Its viability, T/C is 1.38%.

What about the viability, T/C [20] of the same molecule?
Its viability, T/C is 1.51%.

What about the viability, T/C [21] of the same molecule?
Its viability, T/C is 0.71%.

What about the viability, T/C [22] of the same molecule?
Its viability, T/C is 0.54%.

What about the viability, T/C (second compound 3.16 µM, first compound 0.00316 µM) of the same molecule?
Its viability, T/C is 0.79%.

What about the viability, T/C (second compound 3.16 µM, first compound 0.01 µM) of the same molecule?
Its viability, T/C is 0.71%.

What about the viability, T/C [23] of the same molecule?
The viability, T/C was 0.85%.

And the viability, T/C [24]?
The viability, T/C was 0.75%.

What about the viability, T/C [25] of the same molecule?
The viability, T/C was 0.6%.

And the viability, T/C [26]?
Its viability, T/C is 0.43%.

What about the viability, T/C (second compound 10 µM, first compound 0.00316 µM) of the same molecule?
Its viability, T/C is 0.44%.

What about the viability, T/C (second compound 10 µM, first compound 0.01 µM) of the same molecule?
The viability, T/C was 0.53%.

What about the viability, T/C [27] of the same molecule?
Its viability, T/C is 0.53%.

And the viability, T/C [28]?
Its viability, T/C is 0.4%.

And the viability, T/C [29]?
The viability, T/C was 0.55%.

And the viability, T/C [30]?
Its viability, T/C is 0.49%.

With `CCCS(=O)(=O)Nc1ccc(F)c(C(=O)c2c[nH]c3ncc(-c4ccc(Cl)cc4)cc23)c1F` as the molecule, how does the viability, T/C (compound 0.0316 µM) read?
The viability, T/C was 111% and 94.9%.

And the viability, T/C (compound 0.1 µM)?
Its viability, T/C is 107% and 108%.

What about the viability, T/C (compound 0.316 µM) of the same molecule?
The viability, T/C was 108% and 97.3%.

What about the viability, T/C (compound 1 µM) of the same molecule?
The viability, T/C was 100% and 110%.

And the viability, T/C (compound 3.16 µM)?
Its viability, T/C is 91.8% and 83.4%.

What about the viability, T/C (compound 10 µM) of the same molecule?
The viability, T/C was 43.5% and 39.1%.

And the IC50 (curve of compound)?
The IC50 was 8630 nM and 7530 nM.

With `CC(Nc1ccc2c(c1)OCCn1cc(N3C(=O)OCC3C(F)F)nc1-2)C(N)=O` (stereo not given) + CNC(=O)c1ccc(Nc2nc(OC3CCCC3)c3c(-c4ccc5nc(C)oc5c4)c[nH]c3n2)c(OC)c1 as the molecule, how does the IC50 [1] read?
Its IC50 is 316 nM.

What about the IC50 [2] of the same molecule?
The IC50 was under 31.6 nM.

And the IC50 [3]?
The IC50 was under 31.6 nM.

And the IC50 [4]?
Its IC50 is under 31.6 nM.

And the IC50 [5]?
The IC50 was under 31.6 nM.

And the IC50 [6]?
Its IC50 is under 31.6 nM.

What about the viability, T/C [7] of the same molecule?
The viability, T/C was 56%.

What about the viability, T/C [8] of the same molecule?
Its viability, T/C is 61.4%.

What about the viability, T/C [9] of the same molecule?
Its viability, T/C is 46.6%.

What about the viability, T/C [10] of the same molecule?
The viability, T/C was 41%.

What about the viability, T/C (second compound 0.0316 µM, first compound 3.16 µM) of the same molecule?
The viability, T/C was 31.8%.

And the viability, T/C (second compound 0.0316 µM, first compound 10 µM)?
The viability, T/C was 20.8%.

What about the viability, T/C [11] of the same molecule?
The viability, T/C was 40.6%.

What about the viability, T/C [12] of the same molecule?
The viability, T/C was 38.3%.

And the viability, T/C [13]?
Its viability, T/C is 32.5%.

What about the viability, T/C [14] of the same molecule?
The viability, T/C was 27%.

And the viability, T/C (second compound 0.1 µM, first compound 3.16 µM)?
Its viability, T/C is 20.9%.

And the viability, T/C (second compound 0.1 µM, first compound 10 µM)?
The viability, T/C was 16%.

And the viability, T/C [15]?
The viability, T/C was 41%.

And the viability, T/C [16]?
Its viability, T/C is 33.2%.

What about the viability, T/C [17] of the same molecule?
Its viability, T/C is 29.7%.

What about the viability, T/C [18] of the same molecule?
Its viability, T/C is 23.1%.

What about the viability, T/C (second compound 0.316 µM, first compound 3.16 µM) of the same molecule?
The viability, T/C was 20%.

What about the viability, T/C (second compound 0.316 µM, first compound 10 µM) of the same molecule?
The viability, T/C was 17.4%.

What about the viability, T/C [19] of the same molecule?
The viability, T/C was 31.6%.

What about the viability, T/C [20] of the same molecule?
Its viability, T/C is 25.4%.

What about the viability, T/C [21] of the same molecule?
Its viability, T/C is 22.1%.

And the viability, T/C [22]?
The viability, T/C was 20%.

And the viability, T/C (second compound 1 µM, first compound 3.16 µM)?
Its viability, T/C is 17.1%.

And the viability, T/C (second compound 1 µM, first compound 10 µM)?
Its viability, T/C is 14%.

And the viability, T/C [23]?
The viability, T/C was 20.1%.

What about the viability, T/C [24] of the same molecule?
The viability, T/C was 16.7%.

And the viability, T/C [25]?
The viability, T/C was 15.1%.

What about the viability, T/C [26] of the same molecule?
Its viability, T/C is 14.8%.

And the viability, T/C (second compound 3.16 µM, first compound 3.16 µM)?
The viability, T/C was 14%.

And the viability, T/C (second compound 3.16 µM, first compound 10 µM)?
Its viability, T/C is 10.2%.

And the viability, T/C [27]?
Its viability, T/C is 16.7%.

What about the viability, T/C [28] of the same molecule?
Its viability, T/C is 14.8%.

And the viability, T/C [29]?
Its viability, T/C is 12.6%.

What about the viability, T/C [30] of the same molecule?
The viability, T/C was 13%.

And the viability, T/C (second compound 10 µM, first compound 3.16 µM)?
The viability, T/C was 12%.

What about the viability, T/C (second compound 10 µM, first compound 10 µM) of the same molecule?
The viability, T/C was 9.25%.

For `COc1c(OCCCN2CCOCC2)ccc2c3n(c(=NC(=O)c4cnc(N)nc4)nc12)CCN3`, which viability, T/C (compound 0.00316 µM) is on record?
Its viability, T/C is 105% and 81.8%.

And the viability, T/C (compound 0.01 µM)?
Its viability, T/C is 89.7% and 83.9%.

What about the viability, T/C (compound 0.0316 µM) of the same molecule?
Its viability, T/C is 70.9% and 57%.

And the viability, T/C (compound 0.1 µM)?
The viability, T/C was 37.8% and 26.3%.

What about the viability, T/C (compound 0.316 µM) of the same molecule?
Its viability, T/C is 17% and 14.9%.

What about the viability, T/C (compound 1 µM) of the same molecule?
The viability, T/C was 15% and 16%.

What about the IC50 (curve of compound) of the same molecule?
The IC50 was 63.5 nM and 42.1 nM.

How did the viability, T/C (compound 0.0316 µM) turn out when `O=c1[nH]cc(F)c(=O)[nH]1` was run?
The viability, T/C was 99.1% and 101%.

What about the viability, T/C (compound 0.1 µM) of the same molecule?
The viability, T/C was 93.2% and 107%.

And the viability, T/C (compound 0.316 µM)?
The viability, T/C was 100% and 99.6%.

And the viability, T/C (compound 1 µM)?
The viability, T/C was 104% and 101%.

What about the viability, T/C (compound 3.16 µM) of the same molecule?
The viability, T/C was 70% and 56.4%.

What about the viability, T/C (compound 10 µM) of the same molecule?
Its viability, T/C is 54.1% and 46.7%.

And the IC50 (curve of compound)?
The IC50 was > 10000 nM and 6770 nM.
